Laboratory results reported in patent US12667581B2, “Therapeutics for treatment of COVID-19 symptoms” (The Texas A&M University System, priority 2020, dated 2026).

How the values were obtained:
Type in all cases: in vivo, C57BL/6 mice
[1] = test system: Mouse Model of CALD (ORN06 oropharyngeal aspiration); experiment: Clot-like aggregates in BALF cell spots, ORN06 mouse model of CALD; details: male mice; irregularly shaped 2-10 μm object staining dark blue with Wright-Giemsa; i.p. at 24 and 48 hours after ORN06 (DANA 10 mg/kg, AMPCA 0.1 mg/kg); day 3; FIG. 4
[2] = test system: Mouse Model of CALD (ORN06 oropharyngeal aspiration); experiment: BALF cell types by immunochemistry on cell spots, ORN06 mouse model of CALD; details: i.p. at 24 and 48 hours after ORN06 (DANA 10 mg/kg, AMPCA 0.1 mg/kg), day 3, FIG. 3
Procedure: (§1) To determine if DANA or AMPCA affect CALD symptoms in mice, 5 week old 20 g male and female C57BL/6 mice (#000664; Jackson Laboratories, Bar Harbor, ME) were given an oropharyngeal aspiration of 1 mg/kg (20 μg/mouse) ORN06/LyoVec (LyoVec protects the ssRNA from degradation and facilitates cellular uptake) (InvivoGen, San Diego, CA) in 50 μl phosphate-buffered saline (PBS) to induce symptoms of pulmonary inflammation, or an oropharyngeal aspiration of an equal volume of PBS as a control, following Current protocols in mouse biology 2, 167-175 (2012). At 24 and 48 hours after ORN06 insult, some of ORN06-treated mice were given intraperitoneal injections of 100 μl PBS, or 10 mg/kg of DANA (N-Acetyl-2,3-dehydro-2-deoxyneuraminic acid; #252926-10MG, EMD, Millipore, Burlington, MA) or 0.1 mg/kg of 2-piperidinecarboxylic acid, 4-amino-1-methyl (AMPCA, #A00285-13785-026, Sundia, Shanghai, China) in 100 μl PBS. The DANA was dissolved in water to 2.5 mg/ml, and then diluted in PBS The AMPCA was dissolved directly in PBS. At day 3, mice were euthanized by CO2 inhalation, and BALF was obtained as previously described in Current protocols in mouse biology 2, 167-175 (2012); Proceedings of the National Academy of Sciences of the United States of America 112, 8385-8390 (2015); Public Library of Science ONE 9, e93730 (2014); and Nature Scientific Reports 8; 7 (1):15069 (2017). The experiment was performed in accordance with the recommendations in the Guide for the Care and use of Laboratory Animals of the National Institutes of Health. The Texas A&M University Animal Use and Care Committee approved the protocol.
Immunochemistry on BALF cell spots and counts of cells was performed as described previously in Public Library of Science ONE 9, e93730 (2014); Proceedings of the National Academy of Sciences of the United States of America 112, 8385-8390 (2015); Nature Scientific Reports 8; 7 (1):15069 (2017); American Journal of Physiology Lung Cellular and Molecular Physiology, 1; 318 (1)1,165-L179 (2020) using anti-CD3 (100202, clone 17A2, BioLegend, San Diego, CA) to detect T-cells, anti-CD11b (101202, clone M1/70, BioLegend) to detect blood and inflammatory macrophages, anti-CD11c (M100-3, clone 223H7, MBL International, Woburn, MA) to detect alveolar macrophages and dendritic cells, anti-CD45 (103102, clone 30-F11, BioLegend) for total leukocytes, anti-Ly6G (127602, clone 1A8, BioLegend) to detect neutrophils, with isotype-matched irrelevant rat antibodies diluted to 5 μg/ml in PBS containing 2% (w:v) bovine serum albumin (PBS-BSA) (VWR, Radnor, PA). Cells were then incubated in coplin jars containing PBS, with 6 changes of buffer over 30 minutes. […] Using a 40× objective, at least 100 cells from each stained BALF spot were examined and the percent positive cells was recorded.

[3] = test system: Mouse Model of CALD (ORN06 oropharyngeal aspiration); experiment: Alveolar wall thickness in H&E-stained lung cryosections, ORN06 mouse model of CALD; details: i.p. at 24 and 48 hours after ORN06 (DANA 10 mg/kg, AMPCA 0.1 mg/kg), day 3, FIGS. 5 and 6
Procedure: (§2) To determine if DANA or AMPCA affect CALD symptoms in mice, 5 week old 20 g male and female C57BL/6 mice (#000664; Jackson Laboratories, Bar Harbor, ME) were given an oropharyngeal aspiration of 1 mg/kg (20 μg/mouse) ORN06/LyoVec (LyoVec protects the ssRNA from degradation and facilitates cellular uptake) (InvivoGen, San Diego, CA) in 50 μl phosphate-buffered saline (PBS) to induce symptoms of pulmonary inflammation, or an oropharyngeal aspiration of an equal volume of PBS as a control, following Current protocols in mouse biology 2, 167-175 (2012). At 24 and 48 hours after ORN06 insult, some of ORN06-treated mice were given intraperitoneal injections of 100 μl PBS, or 10 mg/kg of DANA (N-Acetyl-2,3-dehydro-2-deoxyneuraminic acid; #252926-10MG, EMD, Millipore, Burlington, MA) or 0.1 mg/kg of 2-piperidinecarboxylic acid, 4-amino-1-methyl (AMPCA, #A00285-13785-026, Sundia, Shanghai, China) in 100 μl PBS. […]
(§3) After collecting BALF, the lungs from the mice were harvested and inflated with Surgipath frozen section compound (#3801480, Leica, Buffalo Grove, IL) and preserved at −80° C. […] Image quantification was done using Image J (NIH, Bethesda, MD). […] Using ‘ Straight’ command, the length of the alveolar wall on the image was measured and was recorded with the ‘Measure’ command. 8 measurements of the alveolar wall thickness were recorded for each image. […]

[4] = test system: Mouse Model of CALD (ORN06 oropharyngeal aspiration); experiment: Percent of exudate-containing alveoli in lung cryosections, ORN06 mouse model of CALD; details: male mice, i.p. at 24 and 48 hours after ORN06 (DANA 10 mg/kg, AMPCA 0.1 mg/kg), day 3, FIG. 7
Procedure: as §2, §3

[5] = test system: Mouse Model of CALD (ORN06 oropharyngeal aspiration); experiment: Total cells in BALF, ORN06 mouse model of CALD; details: i.p. at 24 and 48 hours after ORN06 insult (DANA 10 mg/kg, AMPCA 0.1 mg/kg); BALF at day 3; FIG. 1
[6] = test system: Mouse Model of CALD (ORN06 oropharyngeal aspiration); experiment: BALF cell types by Wright-Giemsa staining, ORN06 mouse model of CALD; details: for ORN06-induced increase in the number of monocyte/macrophages in the BALF / counts of specific cell types in the BALF, treated groups versus Control group: i.p. at 24 and 48 hours after ORN06 (DANA 10 mg/kg, AMPCA 0.1 mg/kg); for ORN06-induced increase in the number of monocyte/macrophages in the BALF: day 3, FIG. 2A; for counts of specific cell types in the BALF, treated groups versus Control group: day 3, FIG. 2A-C
Procedure: as §1
Total cells in the BALF were then quantified. The BALF cells were processed to prepare cell spots as described previously in Public Library of Science ONE 9, e93730 (2014), Nature Scientific Reports 8; 7 (1):15069 (2017); American Journal of Physiology Lung Cellular and Molecular Physiology, 1; 318 (1):L165-L179 (2020). After air drying for 48 hours at room temperature, some of the prepared BALF cell spots were fixed and treated with Wright-Giemsa stain (#08711, Polysciences, Inc., Warrington, PA) following the manufacturer's instructions. One hundred and fifty cells per mouse were examined and quantified for cell type following the manufacturer's instructions. Imaging of BALF cell spots stained with Wright-Giemsa stain was done with a Nikon Eclipse Ti2 microscope.

[7] = test system: Mouse Model of CALD (ORN06 oropharyngeal aspiration); experiment: Percentage of alveolar airspace area occupied by exudate, ORN06 mouse model of CALD; details: lung cryosections; i.p. at 24 and 48 hours after ORN06 (DANA 10 mg/kg, AMPCA 0.1 mg/kg); day 3; FIG. 8
Procedure: To determine if DANA or AMPCA affect CALD symptoms in mice, 5 week old 20 g male and female C57BL/6 mice (#000664; Jackson Laboratories, Bar Harbor, ME) were given an oropharyngeal aspiration of 1 mg/kg (20 μg/mouse) ORN06/LyoVec (LyoVec protects the ssRNA from degradation and facilitates cellular uptake) (InvivoGen, San Diego, CA) in 50 μl phosphate-buffered saline (PBS) to induce symptoms of pulmonary inflammation, or an oropharyngeal aspiration of an equal volume of PBS as a control, following Current protocols in mouse biology 2, 167-175 (2012). […]
as §3
Using the Threshold function and the Measure Tool in NIH ImageJ, the percent area of each 20× objective image of lung cryosections described above containing tissue (not counting pale pink exudates) was measured, and this percentage was subtracted from 100% to obtain the percent area of the image occupied by the alveolar airspace. […]

[8] = test system: Mouse Model of COVID-19-Like Cytokine Storm (ORN06); experiment: Serum cytokine levels (LEGENDplex Mouse Inflammation Panel), ORN06 mouse model; details: AMPCA 0.1 mg/kg i.p. at 24 and 48 hours after ORN06, serum at day 3
Procedure: as §1
Serum samples collected at day 3 post control or ORN06 insult were processed following the manufacturer's protocol. (#740150, LEGENDplex Mouse Inflammation Panel (13-plex), Biolegend, San Diego, CA) for simultaneous quantification of mouse cytokines using an Accuri C6 (BD Bioscience, Franklin Lakes, NJ) flow cytometer.

SMILES	clot-like aggregates in the BAL cell spots [1]	ORN06-induced increase in the number of CD11c positive macrophages and/or dendritic cells in the BALF [2]	ORN06-induced increase in the number of CD45-positive leukocytes in the BALF [2]	ORN06-induced alveolar wall thickness increase [3]	percentage of exudate-containing alveoli [4]	ORN06-induced increase in the number of cells in the BALF [5]	number of cells in the BALF, treated groups versus Control group [5]	ORN06-induced increase in the number of lymphocytes in the BALF ([6]; AMPCA 0.1 mg/kg i.p. at 24 and 48 hours after ORN06, day 3, FIG. 2B)	ORN06-induced increase in the number of monocyte/macrophages in the BALF [6]	counts of specific cell types in the BALF, treated groups versus Control group [6]	percentage of the alveolar airspace area occupied by exudate [7]	serum levels of IL-1β ([8]; FIG. 9A)	serum levels of IL-6 ([8]; FIG. 9B)	serum levels of IL-12p70 ([8]; FIG. 9C)	serum levels of IL-23 ([8]; FIG. 9D)	serum levels of IL-27 ([8]; FIG. 9E)
CN1CCC(N)CC1C(=O)O (centres unmarked) [AMPCA, 4-amino-1-methyl-2-piperidine carboxylic acid]	No clot-like aggregates were observed	decreased the ORN06-induced increase in the number of CD11c positive macrophages and/or dendritic cells	decreased the ORN06-induced increase	significantly reduced	decreased the percentage of exudate-containing alveoli	ameliorated the ORN06-induced increase in the number of cells in the BALF	no significant difference	decreased the ORN06-induced increase in the number of monocyte/macrophages and lymphocytes	decreased the ORN06-induced increase in the number of monocyte/macrophages	no significant difference	decreased the percentage of the alveolar airspace area occupied by exudate	decreased the serum levels of both cytokines	decreased the serum levels of both cytokines	decreased the serum levels of IL-12p70	decreased the serum levels	decreased the serum levels
CC(=O)N[C@H]1[C@H]([C@H](O)[C@H](O)CO)OC(C(=O)O)=C[C@@H]1O [DANA, 2-deoxy-2,3-didehydro-N-acetylneuraminic acid]	no clot-like aggregates were observed in the BAL cell spots from 2 of the 3	decreased the ORN06-induced increase in the number of CD11c positive macrophages and/or dendritic cells	decreased the ORN06-induced increase	significantly reduced	decreased the percentage of exudate-containing alveoli	ameliorated the ORN06-induced increase in the number of cells in the BALF	no significant difference		decreased the ORN06-induced increase in the number of monocyte/macrophages	no significant difference	decreased the percentage of the alveolar airspace area occupied by exudate					
